Test results reported in patent US11312719B2, “9-substituted amino triazolo quinazoline derivatives as adenosine receptor antagonists, pharmaceutical compositions and their use” (Merck Sharp & Dohme Corp., priority 2018, dated 2022).

How the values were obtained:
[1] = biological target: human A2B receptors (Homo sapiens (Human), UniProt P29275); assay: A2B antagonism in cAMP cell-based assay (LANCE cAMP, HEK293); details: HEK293 cells expressing human A2B receptor
Description: (§1) Measurement of A2A and A2B Antagonism in cAMP Cell-Based Assay
(§2) The ability of compounds to antagonize human A2A and A2B adenosine receptors was determined using a kit to measure changes in intracellular cyclic AMP levels (LANCE cAMP 384 Kit, Perkin Elmer, Cat. No. AD0264). HEK293 cells recombinantly expressing either human A2A or A2B receptors, previously frozen in Recovery Medium (Life Technologies, Cat. No. 12648-010) were thawed and diluted into stimulation buffer (HBSS (Hyclone SH 30268.01), 5 mM HEPES (Gibco 15630-106), 200 nM rolipram (Tocris, Cat. No. 0905), and 1.5% (V/v) BSA stabilizer (kit component). The cell suspension was centrifuged at 200×g for 10 min and then resuspended in stimulation buffer, supplemented with a 1:10 000 dilution of Alexa Fluor 647 anti-cAMP antibody, to a density of 6.0×10^5 cells/mL. A Labcyte Echo 550 acoustic dispenser was used to transfer up to 25 nL of test compound dissolved in DMSO into the wells of a dry Optiplate-384 plate (Perkin Elmer, Cat. No. 6008289). All subsequent liquid additions were performed using a multichannel pipettor. Next, 5 μL of the cell suspension was added to the wells of the Optiplate-384 and incubated for 30 min. at 37° C. and 5% CO2 in a humidified environment. After this time 5 μL of either 300 nM or 600 nM adenosine (Sigma Cat. No. A9251) for A2A and A2B respectively was added and incubated for 30 minutes at 37° C. and 5% CO2 in a humidified environment. At this time detection mix was prepared by combining the LANCE Eu-W8044 labeled streptavidin and Biotin-cAMP in detection buffer according to the manufacturers protocol. 10 μL of the detection mix was added to each well of the Optiplate-384 which was covered with a plate seal and incubated under ambient conditions for 2 hours prior to reading the plate using an Envision (Perkin Elmer, Waltham, Mass.) multimode plate reader. Data was normalized by defining minimal effect as stimulation in the presence of 0.25% (v/v) DMSO and maximal effect as stimulation in the presence of 1 μM ZM241385 (Cayman, Cat. No. 1036). Curve fitting of the percent effect data versus the log of compound concentration used a 4-parameter concentration response curve fitting algorithm to calculate IC50 values. Compound concentrations tested were 10,000, 3,333, 1,111, 370.4, 123.4, 41.2, 13.7, 4.6, 1.5 and 0.5 nM with 0.25% residual DMSO.

[2] = biological target: human A2A receptors (Homo sapiens (Human), UniProt P29274); assay: A2A antagonism in cAMP cell-based assay (LANCE cAMP, HEK293); details: HEK293 cells expressing human A2A receptor
human A2A receptors, sequence (P29274 whole entry): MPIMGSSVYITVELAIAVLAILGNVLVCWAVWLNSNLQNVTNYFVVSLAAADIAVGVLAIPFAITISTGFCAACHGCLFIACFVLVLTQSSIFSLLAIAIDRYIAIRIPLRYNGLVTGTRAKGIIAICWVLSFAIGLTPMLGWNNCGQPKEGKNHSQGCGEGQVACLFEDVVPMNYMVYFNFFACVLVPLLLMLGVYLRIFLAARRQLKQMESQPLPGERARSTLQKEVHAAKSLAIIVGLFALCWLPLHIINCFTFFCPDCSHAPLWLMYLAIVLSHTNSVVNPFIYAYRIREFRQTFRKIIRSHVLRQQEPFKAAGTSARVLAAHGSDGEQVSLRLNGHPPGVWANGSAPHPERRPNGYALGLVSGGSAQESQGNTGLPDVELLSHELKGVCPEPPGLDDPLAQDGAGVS
Description: as §1, §2

[3] = biological target: human A2a adenosine receptor (Homo sapiens (Human), UniProt P29274); assay: A2a receptor affinity radioligand binding assay ([3H] SCH58261); details: membranes from HEK293 or CHO cells expressing human A2a receptor
human A2a adenosine receptor, sequence (P29274 whole entry): as above
Summary of the method: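 IC50 values come from 4-parameter logistic fits of filter-bound radioactivity, normalized to total (1% DMSO) and nonspecific (1 μM ZM241385) binding. Recombinant human A2a membranes (HEK293 or CHO) were exposed to compound for 15–30 min, then to [3H]SCH58261 (4 nM working dilution) for 60 min at room temperature in Tris pH 7.4/MgCl2/Tween20 buffer.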

[4] = biological target: human A2b adenosine receptor (Homo sapiens (Human), UniProt P29275); assay: A2b radioligand filtration binding assay; details: membranes from HEK293 cells expressing human A2b receptor
human A2b adenosine receptor, sequence (P29275 whole entry): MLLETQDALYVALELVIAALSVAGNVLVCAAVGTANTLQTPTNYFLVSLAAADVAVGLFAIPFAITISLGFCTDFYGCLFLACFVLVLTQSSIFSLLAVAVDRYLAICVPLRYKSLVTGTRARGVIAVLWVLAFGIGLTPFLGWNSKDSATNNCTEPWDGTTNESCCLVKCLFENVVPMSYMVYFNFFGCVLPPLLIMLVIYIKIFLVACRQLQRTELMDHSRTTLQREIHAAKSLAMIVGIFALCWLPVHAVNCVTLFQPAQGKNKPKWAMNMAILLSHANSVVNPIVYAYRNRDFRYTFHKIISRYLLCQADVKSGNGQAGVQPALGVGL
Summary of the method: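 Displacement of a tritiated A2b antagonist (working solution 14 nM) from human A2b receptor membranes of recombinant HEK293 cells, in Mg/Ca-free PBS pH 7.4, 60 min at room temperature after 15 to 30 min compound preincubation. Filtered, counted; normalized to total and 20 μM NECA non-specific binding; IC50 from logistic fit.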

human A2B receptors, sequence (P29275 whole entry): as above

Structure (SMILES) | IC50 [1] [nM] | IC50 [2] [nM] | IC50 [3] [nM] | IC50 [4] [nM]
COc1cc2nc(N)n3nc(C4CC(C)CN(c5cn(C(C)(C)CO)nc5C)C4)nc3c2cc1F (racemic) [Example 155, racemic, trans-2-(4-(3-(5-amino-9-fluoro-8-methoxy-[1,2,4]triazolo [1,5-c]quinazolin-2-yl)-5-methylpiperidin-1-yl)-3-methyl-1H-pyrazol-1-yl)-2-methylpropan-1-ol] | 1440 | 23.9 |  | 
COc1cc2nc(N)n3nc(C4CC(C)CN(c5cnn(C(C)(C)CO)c5)C4)nc3c2cc1F (racemic) [Example 156, racemic, trans-2-(4-(3-(5-amino-9-fluoro-8-methoxy-[1,2,4]triazolo[1,5-c]quinazolin-2-yl)-5-methylpiperidin-1-yl)-1H-pyrazol-1-yl)-2-methylpropan-1-ol] | 358 | 9.5 |  | 
COc1cc2nc(N)n3nc([C@@H]4C[C@H](C)CN(c5cnn(CC(C)(C)O)c5)C4)nc3c2cc1F (single isomer, unassigned) [Example 157, 1-(4-((3R,5S or 3S,5R)-3-(5-amino-9-fluoro-8-methoxy-[1,2,4]triazolo[1,5-c]quinazolin-2-yl)-5-methylpiperidin-1-yl)-1H-pyrazol-1-yl)-2-methylpropan-2-ol] | 4480 | 33.4 |  | 
COc1cc(F)cc2c1nc(N)n1nc(C3CC(C)CN(c4cn(C(C)C(C)O)nc4C)C3)nc21 (single isomer, unassigned) [Example 224, (2S,3S or 2R,3R)-3-(4-((3R,5S or 3S,5R)-3-(5-amino-9-fluoro-7-methoxy-[1,2,4]triazolo[1,5-c]quinazolin-2-yl)-5-methylpiperidin-1-yl)-3-methyl-1H-pyrazol-1-yl)butan-2-ol] |  | 0.4 |  | 
COc1cc(F)cc2c1nc(N)n1nc(C3CC(C)CN(c4cn(C(C)C(C)O)nc4C)C3)nc21 (single isomer, unassigned) [Example 225, (2R,3R or 2S,3S)-3-(4-((3R,5S or 3S,5R)-3-(5-amino-9-fluoro-7-methoxy-[1,2,4]triazolo[1,5-c]quinazolin-2-yl)-5-methylpiperidin-1-yl)-3-methyl-1H-pyrazol-1-yl)butan-2-ol] |  | 0.4 |  | 
COc1cc(F)cc2c1nc(N)n1nc(C3CC(C)CN(c4cn(C(C)C(C)O)nc4C)C3)nc21 (single isomer, unassigned) [Example 226, (2R,3R or 2S,3S)-3-(4-((3S,5R or 3R,5S)-3-(5-amino-9-fluoro-7-methoxy-[1,2,4]triazolo[1,5-c]quinazolin-2-yl)-5-methylpiperidin-1-yl)-3-methyl-1H-pyrazol-1-yl)butan-2-ol] |  | 17.6 |  | 
COc1cc(F)cc2c1nc(N)n1nc(C3CC(C)CN(c4cn(C(C)C(C)O)nc4C)C3)nc21 (single isomer, unassigned) [Example 227, (2S,3S or 2R,3R)-3-(4-((3S,5R or 3R,5S)-3-(5-amino-9-fluoro-7-methoxy-[1,2,4]triazolo[1,5-c]quinazolin-2-yl)-5-methylpiperidin-1-yl)-3-methyl-1H-pyrazol-1-yl)butan-2-ol] |  | 40.2 |  | 
COc1cc(F)cc2c1nc(N)n1nc([C@@H]3CCCN(c4cnn(C)c4)C3)nc21 [Example 100, (R)-9-fluoro-7-methoxy-2-(1-(1-methyl-1H-pyrazol-4-yl)piperidin-3-yl)-[1,2,4]triazolo[1,5-c]quinazolin-5-amine] |  |  | 1.4 | 4.8
COc1cc2nc(N)n3nc([C@@H]4CC[C@H](C)N(c5cnn(CC(C)(C)O)c5)C4)nc3c2cc1F [Example 109, 1-(4-((2S,5R)-5-(5-amino-9-fluoro-8-methoxy-[1,2,4]triazolo[1,5-c]quinazolin-2-yl)-2-methylpiperidin-1-yl)-1H-pyrazol-1-yl)-2-methylpropan-2-ol] |  |  | 0.7 | 7.8
C[C@H]1CC[C@@H](c2nc3c4cc(F)c(Cl)cc4nc(N)n3n2)CN1c1cnn(CC(C)(C)O)c1 [Example 110, 1-(4-((2S,5R)-5-(5-amino-8-chloro-9-fluoro-[1,2,4]triazolo[1,5-c]quinazolin-2-yl)-2-methylpiperidin-1-yl)-1H-pyrazol-1-yl)-2-methylpropan-2-ol] |  |  | 0.2 | 1.8
C[C@H]1CC[C@@H](c2nc3c4cc(F)cc(F)c4nc(N)n3n2)CN1c1cnn(CC(C)(C)O)c1 [Example 111, 1-(4-((2S,5R)-5-(5-amino-7,9-difluoro-[1,2,4]triazolo[1,5-c]quinazolin-2-yl)-2-methylpiperidin-1-yl)-1H-pyrazol-1-yl)-2-methylpropan-2-ol] |  |  | 0.7 | 16.5
Cc1cc2nc(N)n3nc([C@@H]4CC[C@H](C)N(c5cnn(CC(C)(C)O)c5)C4)nc3c2cc1F [Example 112, 1-(4-((2S,5R)-5-(5-amino-9-fluoro-8-methyl-[1,2,4]triazolo [1,5-c]quinazolin-2-yl)-2-methylpiperidin-1-yl)-1H-pyrazol-1-yl)-2-methylpropan-2-ol] |  |  | 0.4 | 7.9
Cn1cc(N2CCC[C@@H](c3nc4c5cc(Cl)cc(Cl)c5nc(N)n4n3)C2)cn1 [Example 113, (R)-7,9-dichloro-2-(1-(1-methyl-1H-pyrazol-4-yl)piperidin-3-yl)-[1,2,4]triazolo[1,5-c]quinazolin-5-amine] |  |  | 58.1 | 470
COc1cc2nc(N)n3nc([C@@H]4CCCN(c5cn(CS(C)(=O)=O)nc5C)C4)nc3c2cc1F [Example 129, (R)-9-fluoro-8-methoxy-2-(1-(3-methyl-1-((methylsulfonyl)methyl)-1H-pyrazol-4-yl)piperidin-3-yl)-[1,2,4]triazolo[1,5-c]quinazolin-5-amine] |  |  | 4.1 | 470
COc1cc2nc(N)n3nc([C@@H]4CCCN(c5cnn(CS(C)(=O)=O)c5C)C4)nc3c2cc1F [Example 130, (R)-9-fluoro-8-methoxy-2-(1-(5-methyl-1-((methylsulfonyl)methyl)-1H-pyrazol-4-yl)piperidin-3-yl)-[1,2,4]triazolo[1,5-c]quinazolin-5-amine] |  |  | 1.2 | 78.7
COc1cc2nc(N)n3nc([C@@H]4CCCN(c5cnn(CS(C)(=O)=O)c5)C4)nc3c2cc1F [Example 131, (R)-9-fluoro-8-methoxy-2-(1-(1-((methylsulfonyl)methyl)-1H-pyrazol-4-yl)piperidin-3-yl)-[1,2,4]triazolo[1,5-c]quinazolin-5-amine] |  |  | 11.8 | 66
COc1cc2nc(N)n3nc([C@@H]4CCCN(c5cn(CS(C)(=O)=O)nc5C(F)F)C4)nc3c2cc1F [Example 132, (R)-2-(1-(3-(difluoromethyl)-1-((methylsulfonyl)methyl)-pyrazol-4-yl)piperidin-3-yl)-9-fluoro-8-methoxy-[1,2,4]triazolo[1,5-c]quinazolin-5-amine] |  |  | 6.7 | 243
COc1cc2nc(N)n3nc([C@H]4CN(c5cn(CC(C)(C)O)nc5C)CCO4)nc3c2cc1F [Example 140, (R)-1-(4-(2-(5-amino-9-fluoro-8-methoxy-[1,2,4]triazolo[1,5-c]quinazolin-2-yl)morpholino)-3-methyl-1H-pyrazol-1-yl)-2-methylpropan-2-ol] |  |  | 0.8 | 2720
COc1cc2nc(N)n3nc([C@H]4CN(c5cnn(CC(C)(C)O)c5C)CCO4)nc3c2cc1F [Example 141, (R)-1-(4-(2-(5-amino-9-fluoro-8-methoxy-[1,2,4]triazolo[1,5-c]quinazolin-2-yl)morpholino)-5-methyl-1H-pyrazol-1-yl)-2-methylpropan-2-ol] |  |  | 24.1 | 1760
